Where a name gives a salt, the structure may show the parent alone.
Tests used:
[1] = 60 mg once per week vs 20 mg per day; maintenance therapy after eight weeks of daily dosing; cited from earlier work
[2] = 120 mg dosed biweekly; cited from earlier work
[3] = interaction of fluoxetine with lactose (reducing sugar) over time; format: physicochemical; settings: room temperature and accelerated stability conditions (heat)
Source text: When used in this description, the term “sugar” refers to a sugar other than a reducing sugar. A reducing sugar is a carbohydrate that reduces Fehling's (or Benedict's) or Tollens' reagent. All monosaccharides are reducing sugars as are most disaccharides with the exception of sucrose. One common sugar used frequently as a binding or filling agent is lactose. […] As discussed below, sucrose is a preferred sugar.

| SMILES | effectiveness during maintenance therapy [1] | effectiveness for treating recurrent brief depression [2] | interaction with lactose [3] |
| --- | --- | --- | --- |
| CNCCC(Oc1ccc(C(F)(F)F)cc1)c1ccccc1 (stereo not drawn) [fluoxetine hydrochloride] | as effective as 20 mg per day | – | – |
| CNCCC(Oc1ccc(C(F)(F)F)cc1)c1ccccc1 (stereo not drawn) [fluoxetine, N-methyl-3-(p-trifluoromethylphenoxy)-3-phenylpropylamine] | – | ineffective | interacts with lactose both at room temperature and under accelerated stability conditions (heat) |
